Laboratory results reported in patent US11648255B2, “Inhibitors for treatment of hematological malignancies” (Masarykova Univerzita, priority 2020, dated 2023).

What was measured:
[1] = test system: MEC1 cells; assay: viability by DiOC6/PI staining, ibrutinib and/or GAB1 inhibitors; assay type: cell-based; conditions: ibrutinib 1 μM six days, then GAB1 inhibitors 25 μM 48 hours, DMSO control 85.20
Procedure: Cells were cultivated for six days (see Material and Method section) and ibrutinib or DMSO were supplemented each second day. […] After that were cells harvested and stained for viability using DiOC6/PI (3,3′-dihexyloxacarbocyanine iodide together with propidium iodide (catalog numbers: D273 and P3566; both were obtained from Thermo Fisher Scientific). Cells were stained and analyzed according to manufacturer protocol. The analysis was performed using BD FACS Verse flow cytometer (BD Biosciences).

[2] = test system: JEKO (Mantle cell lymphoma); assay: as above; assay type: cell-based; conditions: ibrutinib 1 μM six days, then GAB1 inhibitors 25 μM 48 hours, DMSO control 76.64
Procedure: (§1) Cells were cultivated for six days (see Material and Method section) and ibrutinib or DMSO were supplemented each second day. […] The analysis was performed using BD FACS Verse flow cytometer (BD Biosciences).

[3] = test system: ML2 (Acute myeloid leukemia); assay: as above; assay type: cell-based; conditions: ibrutinib 1 μM six days, then GAB1 inhibitors 25 μM 48 hours, DMSO control 76.92
Procedure: as §1

[4] = test system: OciLy5 (Small lymphocytic leukemia); assay: as above; assay type: cell-based; conditions: ibrutinib 1 μM six days, then GAB1 inhibitors 25 μM 48 hours, DMSO control 81.47
Procedure: as §1

[5] = test system: phospho-GAB1 Y307 in primary CLL cells; assay: immunoblot of GAB1 phosphorylation after stimulation with SDF1 or conditioned media, with or without plerixafor; assay type: cell-based, human
Procedure: Samples were sonicated 2×10 seconds, amplitude 60% (type: UP100H; Hielscher). […] Electrophoresis was conducted using Biorad Miniprotean system (Biorad) according to manufacturer protocol (voltage: 60-110 V, electrophoresis buffer: 25 mM TRIS, 250 mM glycine, […], pH 8.2; all reagents were obtained from Sigma Aldrich; catalog numbers: L3771, T6066, H1758, G8898). Proteins were subsequently transferred to the PVDF membrane (0.45 μm pore size, Millipore) using Biorad Miniprotean system (Biorad) according to manufacturer protocol (blot buffer: 20% methanol, 192 mM glycine, 25 mM TRIS; all reagents were obtained from Sigma Aldrich; catalog numbers: 34860, T6066, H1758, G8898).
HS5 cells (3.5×10^6) were seeded in T75 cultivation flask (TPP) in 12 ml of Dulbecco's Modified Eagle's Medium media (DMEM, catalog number: D6429, Sigma-Aldrich). The next day was original media discarded, the cells attached to the bottom of the flask were washed once with 10 ml of PBS (catalog number: 5493; Sigma Aldrich). Subsequently, the 25 ml of RPMI-1640 (catalog number: R8758, Sigma-Aldrich) media was added to the attached HS5 cells. […] This media was immediately used for experiments.
Primary CLL cells (5×10^6/ml) were cultured as described in Material and Method section. […]

[6] = test system: primary CLL cells; assay: Ca2+ flux (Fluo-4AM, flow cytometry) after SDF1 stimulation; assay type: cell-based, human; conditions: 25 μM inhibitor 6 hours, SDF1 100 μg/ml
Procedure: Primary CLL cells (5×10^6/ml) were treated with 25 μM GAB1-001 inhibitor (inhGAB1-001) or GAB1-004 inhibitor (inhGAB1-004) for 6 hours (culture conditions are described in the Material and Method section). These inhibitors were obtained from MD Anderson, USA (Lu Chen et al., PLoS Comput Biol. 2015; 11(1): e1004021.). Control cells were treated with an equal volume of DMSO also for 6 hours. After that were these cells incubated in Hanks Balanced Salt Solution (HBSS, catalog number: H6648, Sigma Aldrich) containing […] Fluo-4AM (catalog number: F14201, Thermo Fisher Scientific) for 30 minutes at 37° C. in the dark. The cells were subsequently prepared for analysis according to instructions provided by the manufacturer of Fluo-4AM. The malignant B cells were subsequently analyzed by flow cytometry (BD FACS Verse, BD Biosciences). Samples were acquired for 60 seconds without stimulation. After that the cells were immediately stimulated by SDF1 100 μg/ml (catalog number: 300-28A, Peprotech). […] To calculate the response to SDF1, we established a baseline fluorescence threshold for each sample (by acquiring samples for 60 seconds without any stimulus). We then calculated the peak Fluo-4AM signal and the percentage of cells with fluorescence intensity above baseline Fluo-4AM signal following stimulation addition.

[7] = test system: primary CLL cells; assay: viability by DiOC6/PI staining, flow cytometry; assay type: cell-based; conditions: Homo sapiens, CLL cell, 48 hours, DMSO control 55.67
Procedure: To see the effect of GAB1 inhibitors on malignant B cell viability we treated 5×10^6/ml of primary CLL cells with different doses (10, 25 or 50 μM) of GAB1-001 inhibitor (inhGAB1-001) or GAB1-004 inhibitor (inhGAB1-004) for 48 hours. These inhibitors were obtained from MD Anderson, USA (Lu Chen et al., PLoS Comput Biol. 2015; 11(1): e1004021.). Control cells were treated with an equal volume of DMSO also for 48 hours (culture conditions are described in the Material and Method section). After that, the cells were stained with DiOC6/PI (3,3′-dihexyloxacarbocyanine iodide together with propidium iodide; catalog numbers: D273 and P3566; both were obtained from Thermo Fisher Scientific). Cells were stained and analyzed according to manufacturer protocol. The analysis was performed using BD FACS Verse flow cytometer (BD Biosciences).

[8] = test system: primary CLL cells; assay: competitive migration assay (transwell) after inhibitor treatment; assay type: cell-based, human; conditions: GAB1 inhibitors 50 μM, ibrutinib 1 μM, 12 hours, migration towards conditioned media (50%) 6 hours, control set to 1
Procedure: HS5 cells (3.5×10^6) were seeded in T75 cultivation flask (TPP) in 12 ml of Dulbecco's Modified Eagle's Medium media (DMEM, catalog number: D6429, Sigma-Aldrich). The next day was original media discarded, the cells attached to the bottom of the flask were washed once with 10 ml of PBS (catalog number: 5493; Sigma Aldrich). Subsequently, the 25 ml of RPMI-1640 (catalog number: R8758, Sigma-Aldrich) media was added to the attached HS5 cells. After 48 hours was this conditioned media collected, purified from cell-debris by 10 minutes centrifugation at 2000 RCF and subsequently diluted with fresh RPMI-1640 media (catalog number: R8758, Sigma-Aldrich) containing 10% FBS (catalog number: FB-1350; Biosera) and 5% penicillin/streptomycin (catalog number: P4333; Sigma Aldrich) to final concentration 50% conditioned media. This media was immediately used for experiments.
To compare the migration, the stained cells (control cells plus one treated variant) were mixed in ratio 1:1 and loaded in transwell inserts (24 well insert, 8 μm pore size; Falcon, Corning) according to manufacturer protocol. […] The ratio of migrated inhibitor-treated cells was calculated by dividing of the percentage of migrated inhibitor-treated cells by percentage of migrated control cells.

[9] = test system: DOHH2 (GC-DLBCL); assay: viability by DiOC6/PI staining, GAB1 inhibitors; assay type: cell-based; conditions: Homo sapiens, DOHH-2, 48 hours, DMSO control 81.84
Procedure: (§2) In a further experiment, 2.5×10^6/ml of RAMOS (derived from Burkitt's lymphoma) or DOHH2 (derived from diffuse large B cell lymphoma) or GRANTA (derived from […]) or WSU-NHL (derived from follicular lymphoma) cells was treated with treated with two different GAB inhibitors (inhGAB1-001 and inhGAB1-004; provided by MD Anderson, USA (Lu Chen et al., PLoS Comput Biol. 2015; 11(1): e1004021.) at final concentration 25 μM, or with an equal volume of vehicle (DMSO) for 48 hours. After that, cells were harvested and stained for viability using DiOC6/PI (3,3′-dihexyloxacarbocyanine iodide together with propidium iodide; catalog numbers: D273 and P3566; both were obtained from Thermo Fisher Scientific). Cells were stained and analyzed according to manufacturer protocol. The analysis was performed using BD FACS Verse flow cytometer (BD Biosciences).

[10] = test system: GRANTA (Acute lymphoblastic leukemia); assay: viability by DiOC6/PI staining, GAB1 inhibitors; assay type: cell-based; conditions: 48 hours, DMSO control 87.24
Procedure: as §2

[11] = test system: RAMOS (Burkitt's lymphoma); assay: viability by DiOC6/PI staining, GAB1 inhibitors; assay type: cell-based; conditions: Homo sapiens, 48 hours, DMSO control 95.01
Procedure: as §2

[12] = test system: WSU-NHL (Follicular lymphoma); assay: viability by DiOC6/PI staining, GAB1 inhibitors; assay type: cell-based; conditions: Homo sapiens, 48 hours, DMSO control 87.34
Procedure: as §2

C=CC(=O)N1CCC[C@@H](n2nc(-c3ccc(Oc4ccccc4)cc3)c3c(N)ncnc32)C1 [ibrutinib]
% of viability [1]: 81.66% | % of viability [2]: 60.14% | % of viability [3]: 68.93% | % of viability [4]: 80.33%

SDF1: Stromal cell-derived factor 1, chemokine ligand used as stimulus
GAB1 phosphorylation on stimulation (FIG. 1A) ([5]; SDF1 100 ng/ml, 5 minutes): phosphorylation and thus activation of GAB1 protein

c1cc(CN2CCCNCCNCCCNCC2)ccc1CN1CCCNCCNCCCNCC1 [plerixafor]
GAB1 phosphorylation on conditioned media in the presence of plerixafor (FIG. 1A) ([5]; plerixafor 5 μg/ml 8 hours, 50% conditioned media 5 minutes): also led to GAB1 phosphorylation

O=c1[nH]nc(SCc2csc(-c3ccccc3)n2)n1Cc1ccco1 [inhGAB1-004]
Ca2+ flux after treatment with SDF1 (FIG. 2G) [6]: decreases the Ca^2+ flux | viability at 10 µM [7]: 44.7% | viability at 25 µM [7]: 42.6% | viability at 50 µM [7]: 37.4% | % of viability [1]: 74.52% | Ratio of migrated cells [8]: 0.75 | % of viability [2]: 49.20% | % of viability [3]: 28.07% | % of viability [4]: 62.46% | viability at 25 µM [9]: 72.3% | viability at 25 µM [10]: 74.1% | viability at 25 µM [11]: 74.6% | viability at 25 µM [12]: 70.2%

O=S(=O)(NCc1csc2ccc(Cl)cc12)c1cc(S(=O)(=O)c2ccccc2)cs1 [inhGAB1-001]
Ca2+ flux after treatment with SDF1 (FIG. 2G) [6]: decreases the Ca^2+ flux | viability at 10 µM [7]: 52.8% | viability at 25 µM [7]: 50.3% | viability at 50 µM [7]: 31% | % of viability [1]: 67.00% | Ratio of migrated cells [8]: 0.79 | % of viability [2]: 2.88% | % of viability [3]: 6.86% | % of viability [4]: 53.12% | viability at 25 µM [9]: 51.9% | viability at 25 µM [10]: 4.49% | viability at 25 µM [11]: 50.3% | viability at 25 µM [12]: 29.4%
